Results: patent US20180099931A1 (AbbVie S.à.r.l., priority 2016, published 2018)
Where two headings read alike, the source gives them in different places.

Molecular target: T1, F508delCFTR (Homo sapiens, UniProt P13569, DEL508-508)
T1 construct: expressed in transfected cells; host or cells: CFBE41o- human lung-derived epithelial cells (CFBE4lo-F508delCFTR-HRP), doxycycline-inducible
Experiment: Cell Surface Expression-Horse Radish Peroxidase (CSE-HRP) Assay;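 as to Maximum % activity (with co-corrector): co-corrector and positive control are both the same reference corrector at 2 µM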;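 as to Maximum % activity (without co-corrector): percent of the 2 µM on-plate positive control corrector response above DMSO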
Format: cell-based
Conditions: for Emax / Maximum % activity (with co-corrector) / Maximum % activity (without co-corrector): maximum at any tested concentration, normalized to on-plate positive control; for Emax: read-out: Maximum % activity (without co-corrector)

[1] = test compound without co-corrector
[2] = test compound without co-corrector, read-out: EC50 (without co-corrector)
[3] = with co-corrector (2 μM of 3-[(2R,4R)-4-({[1-(2,2-difluoro-1,3-benzodioxol-5-yl)cyclopropyl]carbonyl}amino)-7-methoxy-3,4-dihydro-2H-chromen-2-yl]benzoic acid)
[4] = with co-corrector (2 μM of 3-[(2R,4R)-4-({[1-(2,2-difluoro-1,3-benzodioxol-5-yl)cyclopropyl]carbonyl}amino)-7-methoxy-3,4-dihydro-2H-chromen-2-yl]benzoic acid), read-out: EC50 (with co-corrector)
[5] = CSE-HRP, test compound without co-corrector, read-out: EC50 (without co-corrector)
[6] = CSE-HRP, with co-corrector (2 μM of 3-[(2R,4R)-4-({[1-(2,2-difluoro-1,3-benzodioxol-5-yl)cyclopropyl]carbonyl}amino)-7-methoxy-3,4-dihydro-2H-chromen-2-yl]benzoic acid), read-out: EC50 (with co-corrector)
[7] = CSE-HRP, with co-corrector (2 μM)

T1 sequence (P13569 with tags, fused parts or gaps DEL508-508): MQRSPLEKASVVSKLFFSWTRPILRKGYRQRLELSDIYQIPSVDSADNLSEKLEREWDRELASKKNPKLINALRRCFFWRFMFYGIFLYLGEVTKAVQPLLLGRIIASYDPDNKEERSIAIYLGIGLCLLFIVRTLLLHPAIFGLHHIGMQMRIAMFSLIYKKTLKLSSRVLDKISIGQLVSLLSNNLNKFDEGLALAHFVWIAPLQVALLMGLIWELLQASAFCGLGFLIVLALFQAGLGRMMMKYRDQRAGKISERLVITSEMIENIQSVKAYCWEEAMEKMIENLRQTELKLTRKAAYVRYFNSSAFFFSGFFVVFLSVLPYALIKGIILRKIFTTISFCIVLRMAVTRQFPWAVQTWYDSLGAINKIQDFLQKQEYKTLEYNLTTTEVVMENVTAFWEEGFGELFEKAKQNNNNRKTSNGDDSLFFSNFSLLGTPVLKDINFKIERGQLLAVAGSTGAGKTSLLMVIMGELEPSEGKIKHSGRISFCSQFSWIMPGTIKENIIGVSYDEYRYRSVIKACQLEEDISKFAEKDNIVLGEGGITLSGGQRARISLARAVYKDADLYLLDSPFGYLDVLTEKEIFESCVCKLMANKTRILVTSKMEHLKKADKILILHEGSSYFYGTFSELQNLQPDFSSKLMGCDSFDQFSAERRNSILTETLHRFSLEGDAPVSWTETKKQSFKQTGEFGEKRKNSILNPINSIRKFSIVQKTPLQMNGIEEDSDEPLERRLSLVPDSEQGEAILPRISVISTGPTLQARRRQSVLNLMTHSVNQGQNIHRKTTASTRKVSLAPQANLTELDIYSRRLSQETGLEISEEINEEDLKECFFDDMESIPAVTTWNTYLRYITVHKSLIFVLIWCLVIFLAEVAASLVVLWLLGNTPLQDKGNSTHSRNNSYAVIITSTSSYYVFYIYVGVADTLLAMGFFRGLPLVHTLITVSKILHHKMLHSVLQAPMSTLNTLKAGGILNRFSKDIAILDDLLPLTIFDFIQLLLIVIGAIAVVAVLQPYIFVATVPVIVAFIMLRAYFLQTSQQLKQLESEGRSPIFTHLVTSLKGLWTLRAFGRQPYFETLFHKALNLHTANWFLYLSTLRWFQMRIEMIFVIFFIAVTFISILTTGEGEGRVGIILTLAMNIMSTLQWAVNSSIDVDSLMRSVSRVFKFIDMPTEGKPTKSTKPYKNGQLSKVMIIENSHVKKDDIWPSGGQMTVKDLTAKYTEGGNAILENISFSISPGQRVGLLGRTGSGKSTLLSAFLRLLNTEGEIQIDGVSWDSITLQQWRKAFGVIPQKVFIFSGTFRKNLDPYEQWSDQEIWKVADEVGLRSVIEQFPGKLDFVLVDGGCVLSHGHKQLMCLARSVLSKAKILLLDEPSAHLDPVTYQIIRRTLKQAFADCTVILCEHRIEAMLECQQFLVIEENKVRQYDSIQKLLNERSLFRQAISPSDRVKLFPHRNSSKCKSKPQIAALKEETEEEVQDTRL

Emax [1] [%]	EC50 [2] [µM]	Maximum % activity (with co-corrector) [3]	EC50 [4] [µM]	Maximum % activity (with co-corrector) (with co-corrector (2 μM))	SMILES	further results
< 100	> 10	++ (≥150 and <350)	1 to 10	–	CO[C@@H](C(=O)N1[C@H](C(=O)O)[C@@H](C(C)(C)C)[C@H](Nc2cc(C(F)(F)F)cc(C)n2)[C@@H]1c1ccccc1)c1ccccc1 [III-78]	–
< 100	> 10	++ (≥150 and <350)	1 to 10	–	CC(C)(C)[C@@H]1[C@@H](Nc2cc(Cl)ccn2)[C@@H](c2ccccc2)N(C(=O)C2CCCCC2)[C@H]1C(=O)O (racemic) [III-6]	–
< 100	1 to 10	+++ (≥350)	1 to 10	–	COc1ccccc1CN[C@@H]1[C@@H](C(C)(C)C)[C@H](C(=O)O)N(C(=O)C2CCCCC2)[C@@H]1c1ccccc1 (racemic) [III-12]	–
< 100	1 to 10	++ (≥150 and <350)	1 to 10	–	COCCOc1ccc(C(F)(F)F)cc1CN[C@@H]1[C@@H](C(C)(C)C)[C@H](C(=O)O)N(C(=O)C2CCCCC2)[C@@H]1c1ccccc1 (racemic) [III-64]	–
< 100	> 10	–	> 10	+ (<150)	COc1ncc(C(F)(F)F)cc1N[C@H]1[C@H](C(C)(C)C)[C@@H](C(=O)O)N(C(=O)[C@H]2CCCCO2)[C@H]1c1cccnc1N(C)C [III-213]	–
< 100	> 10	–	1 to 10	++ (≥150 and <350)	CC(C)(C)[C@H]1[C@H](NCc2cc(Cl)c3c(c2)OCO3)[C@H](c2ccccc2)N(C(=O)C2CCCCC2)[C@@H]1C(=O)O [III-140]	–
100 to 200	1 to 10	+++ (≥350)	1 to 10	–	COc1cccc([C@@H]2[C@H](NCc3ccc(Cl)cc3OC)[C@@H](C(C)(C)C)[C@H](C(=O)O)N2C(=O)C2CCCCC2)n1 (racemic) [III-67]	–
> 200	< 1	–	< 1	+++ (≥350)	COc1ccc(C(C)(C)C)cc1CN[C@@H]1[C@@H](C(C)(C)C)[C@H](C(=O)O)N(C(=O)C2CCCCC2)[C@@H]1c1ccccc1 (racemic) [III-107]	–
> 200	< 1	–	< 1	+++ (≥350)	COc1ccc(Br)cc1CN[C@H]1[C@H](C(C)(C)C)[C@@H](C(=O)O)N(C(=O)C2CCCCC2)[C@H]1c1ccccc1 [III-118]	–

Further lines, the compound ahead of its results:

SMILES	Emax [1] [%]	EC50 [2] [µM]	Maximum % activity (with co-corrector) [3]	EC50 [4] [µM]	Maximum % activity (with co-corrector) (with co-corrector (2 μM))	further results
COc1ccc(C(C)(C)C)cc1CN[C@H]1[C@H](C(C)(C)C)[C@@H](C(=O)O)N(C(=O)C2CCC(C)(C)C2)[C@H]1c1ccccc1 (some centres unmarked) [II-401]	> 200	1 to 10	+++ (≥350)	< 1	–	–
COc1ncc(C2CCC2)cc1CN[C@H]1[C@H](C(C)(C)C)[C@@H](C(=O)O)N(C(=O)[C@@H]2CCCO2)[C@H]1c1ccccc1Cl [Example 103, (2S,3S,4S,5S)-3-tert-butyl-5-(2-chlorophenyl)-4-{[(5-cyclobutyl-2-methoxypyridin-3-yl)methyl]amino}-1-[(2S)-oxolane-2-carbonyl]pyrrolidine-2-carboxylic acid]	–	1 to 10	–	1 to 10	+++ (≥350)	Emax (without co-corrector): 100 to 200%
COc1ncc(C(F)(F)F)cc1CN[C@H]1[C@H](C(C)(C)C)[C@@H](C(=O)O)N(C(=O)[C@@H]2CCCO2)[C@H]1c1cccnc1C1CC1 [II-586]	< 100	1 to 10	++ (≥150 and <350)	1 to 10	–	–
COc1cc2c(cc1CN[C@H]1[C@H](C(C)(C)C)[C@@H](C(=O)O)N(C(=O)C3CCCCC3)[C@H]1c1ccccc1)OCO2 [II-116]	–	–	–	–	–	EC50 [5]: 1 to 10 µM; EC50 [6]: 1 to 10 µM; Maximum % activity (with co-corrector) [7]: +++ (≥350); Emax (CSE-HRP, without co-corrector): 100 to 200%
CC(C)(C)[C@H]1[C@H](NCc2cc(Cl)ccc2OCC2CC2)[C@H](c2ccccc2)N(C(=O)C2CCCCC2)[C@@H]1C(=O)O [II-139]	–	–	–	–	–	EC50 [5]: 1 to 10 µM; EC50 [6]: 1 to 10 µM; Maximum % activity (with co-corrector) [7]: ++ (≥150 and <350); Emax (CSE-HRP, without co-corrector): < 100%
COc1cnc(C2CCCCC2)cc1CN[C@H]1[C@H](C(C)(C)C)[C@@H](C(=O)O)N(C(=O)C2CCCCC2)[C@H]1c1ccccc1 [II-404]	< 100	1 to 10	+++ (≥350)	1 to 10	–	–
COc1ccc(C(C)(C)C)cc1CN[C@@H]1[C@@H](C(C)(C)C)[C@@H](C(=O)O)N(C(=O)[C@H](OC)c2ccccc2)[C@H]1c1ccccc1 [II-393]	< 100	1 to 10	++ (≥150 and <350)	1 to 10	–	–
COc1ccc(C(C)(C)C)cc1CN[C@H]1[C@H](C(C)(C)C)[C@@H](C(=O)O)N(C(=O)C2CC(=O)N(C3CC3)C2)[C@H]1c1ccccc1 (some centres unmarked) [II-239]	–	–	–	–	–	EC50 [5]: 1 to 10 µM; EC50 [6]: 1 to 10 µM; Maximum % activity (with co-corrector) [7]: +++ (≥350); Emax (CSE-HRP, without co-corrector): 100 to 200%
COc1ccc(C23CC(C2)C3)cc1CN[C@H]1[C@H](C(C)(C)C)[C@@H](C(=O)O)N(C(=O)C2CCCCC2)[C@H]1c1cccnc1OC(F)F [Example I-228]	–	1 to 10	–	1 to 10	+++ (≥350)	Emax (without co-corrector): 100 to 200%
COc1ccc(C(C)(C)C)cc1CN[C@H]1[C@H](C(C)(C)C)[C@@H](C(=O)O)N(C(=O)c2onc3ccccc23)[C@H]1c1ccccc1 [II-231]	–	–	–	–	–	EC50 [5]: < 1 µM; EC50 [6]: < 1 µM; Maximum % activity (with co-corrector) [7]: +++ (≥350); Emax (CSE-HRP, without co-corrector): 100 to 200%
COc1cccc([C@@H]2[C@H](NCc3cc(C(F)(F)F)ccc3OC)[C@@H](C(C)(C)C)[C@H](C(=O)O)N2C(=O)C2CCCCC2)n1 (racemic) [Example I-19]	–	1 to 10	–	1 to 10	+++ (≥350)	Emax (without co-corrector): 100 to 200%
COc1ccc(C2(C(F)(F)F)CC2)cc1CN[C@H]1[C@H](C(C)(C)C)[C@@H](C(=O)O)N(C(=O)C2Cc3ccccc3O2)[C@H]1c1cccnc1N(C)C (single isomer, unassigned) [Example 37, (2S,3S,4S,5S)-3-tert-butyl-1-[(2R*)-2,3-dihydro-1-benzofuran-2-carbonyl]-5-[2-(dimethylamino)pyridin-3-yl]-4-[({2-methoxy-5-[1-(trifluoromethyl)cyclopropyl]phenyl}methyl)amino]pyrrolidine-2-carboxylic acid]	–	< 1	–	< 1	–	Maximum % activity (with co-corrector) (with co-corrector (2 μM), 2 µM): ++ (≥150 and <350); Maximum % activity (without co-corrector) (without co-corrector): + (<100)
COc1ccc(C(C)(C)C)cc1CN[C@H]1[C@H](C(C)(C)C)[C@@H](C(=O)O)N(C(=O)C2COc3ccccc3O2)[C@H]1c1cccnc1N(C)C (single isomer, unassigned) [II-472]	–	1 to 10	++ (≥150 and <350)	1 to 10	–	Maximum % activity (without co-corrector) [1]: + (<100)
COc1ccc(C(C)(C)C)cc1CN[C@H]1[C@H](C(C)(C)C)[C@@H](C(=O)O)N(C(=O)C2CC2(C)C)[C@H]1c1ccccc1 (some centres unmarked) [II-309]	–	–	–	–	–	EC50 [5]: 1 to 10 µM; EC50 [6]: 1 to 10 µM; Maximum % activity (with co-corrector) [7]: +++ (≥350); Emax (CSE-HRP, without co-corrector): > 200%
COc1ccc(C(C)(C)C)cc1CN[C@H]1[C@H](C(C)(C)C)[C@@H](C(=O)O)N(C(=O)CC2CCCOC2)[C@H]1c1ccccc1 (some centres unmarked) [II-179]	–	–	–	–	–	EC50 [5]: 1 to 10 µM; EC50 [6]: 1 to 10 µM; Maximum % activity (with co-corrector) [7]: +++ (≥350); Emax (CSE-HRP, without co-corrector): > 200%
COc1cc(C(F)(F)F)ccc1CN[C@@H]1[C@@H](C(C)(C)C)[C@H](C(=O)O)N(C(=O)[C@@H]2CCCCO2)[C@@H]1c1ccccc1 (racemic) [II-49]	–	–	–	–	–	EC50 [5]: 1 to 10 µM; EC50 [6]: 1 to 10 µM; Maximum % activity (with co-corrector) [7]: +++ (≥350); Emax (CSE-HRP, without co-corrector): 100 to 200%
COc1nc(C(C)(C)C)ccc1CN[C@H]1[C@H](C(C)(C)C)[C@@H](C(=O)O)N(C(=O)C2CCCCO2)[C@H]1c1ccccc1C(C)C (some centres unmarked) [Example I-177]	–	< 1	–	< 1	+++ (≥350)	Emax (without co-corrector): > 200%
COc1ccc(C2(C)CCC2)cc1CN[C@H]1[C@H](C(C)(C)C)[C@@H](C(=O)O)N(C(=O)C2CCCCC2)[C@H]1c1cccnc1OC [Example I-238]	–	1 to 10	–	< 1	+++ (≥350)	Emax (without co-corrector): > 200%
COc1ccc(S(F)(F)(F)(F)F)cc1CN[C@H]1[C@H](C(C)(C)C)[C@@H](C(=O)O)N(C(=O)OC(C)C)[C@H]1c1cccnc1N(C)C [Example I-245]	–	1 to 10	–	1 to 10	+++ (≥350)	Emax (without co-corrector): > 200%
COc1ccc(C(C)(C)C)cc1CN[C@H]1[C@H](C(C)(C)C)[C@@H](C(=O)O)N(C(=O)OC(C)C)[C@H]1c1cccnc1OC [II-511]	100 to 200	1 to 10	+++ (≥350)	1 to 10	–	–
